Measured values reported in the supplement of paper PMC10307832.

Tests used:
Test in all cases: relative viability (nuclei count vs DMSO), 5 days (fraction); higher = more cells survive
Metformin = compound: CN(C)C(=N)NC(=N)N [Metformin]
Outline: (§1)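 Five library-drug doses spaced by √10 were pinned onto vehicle-anchored 1536-well plates of lung cancer cell lines that had been kept overnight at 37 °C. Cells went 5 days without medium change, then were fixed, permeabilised and Hoechst-stained together, imaged at 4× and counted by MetaXpress. Viability is the ratio of treated-well to vehicle-well nuclei, taken as a median over plates. Plates required control CV below 25% and at least one doubling.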

Apatinib = compound: N#CC1(c2ccc(NC(=O)c3cccnc3NCc3ccncc3)cc2)CCCC1 [Apatinib]
Outline: as §1

Apatinib + Navitoclax = compound: N#CC1(c2ccc(NC(=O)c3cccnc3NCc3ccncc3)cc2)CCCC1 [Apatinib] + CC1(C)CCC(c2ccc(Cl)cc2)=C(CN2CCN(c3ccc(C(=O)NS(=O)(=O)c4ccc(N[C@H](CCN5CCOCC5)CSc5ccccc5)c(S(=O)(=O)C(F)(F)F)c4)cc3)CC2)C1 [Navitoclax] (partner 0.5 µM)
Outline: (§2)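 Lung cancer cell lines in 1536-well plates were dosed by pin tool the day after seeding, either with one drug alone or with a fixed anchor-drug dose plus five library-drug doses (not always all listed) in √10 steps. After 5 days, cells were fixed and their nuclei stained in one step (final 0.05% Triton X-100, 1% formaldehyde, 1 ug/ml Hoechst), then counted on 4× images. Relative viability is the nuclei count in treated wells divided by that in vehicle wells. Values are medians of duplicate plates.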

Metformin + Trametinib = compound: CN(C)C(=N)NC(=N)N [Metformin] + CC(=O)Nc1cccc(-n2c(=O)n(C3CC3)c(=O)c3c(Nc4ccc(I)cc4F)n(C)c(=O)c(C)c32)c1 [Trametinib] (partner 0.02 µM)
Outline: as §2

Cell Line	relative viability (Metformin; 31.62 µM)	relative viability (Metformin; 100 µM)	relative viability (Metformin; 316.23 µM)	relative viability (Metformin; 1000 µM)	relative viability (Apatinib; 0.08 µM)	relative viability (Apatinib; 0.253 µM)	relative viability (Apatinib; 0.8 µM)	relative viability (Apatinib; 2.53 µM)	relative viability (Apatinib; 8 µM)	relative viability (Apatinib + Navitoclax; first compound 0.08 µM)	relative viability (Apatinib + Navitoclax; first compound 0.253 µM)	relative viability (Apatinib + Navitoclax; first compound 0.8 µM)	relative viability (Apatinib + Navitoclax; first compound 2.53 µM)	relative viability (Apatinib + Navitoclax; first compound 8 µM)	relative viability (Metformin + Trametinib; first compound 31.62 µM)	relative viability (Metformin + Trametinib; first compound 100 µM)	relative viability (Metformin + Trametinib; first compound 316.23 µM)	relative viability (Metformin + Trametinib; first compound 1000 µM)	relative viability (Metformin; 10 µM)	relative viability (Metformin + Trametinib; first compound 10 µM)
LC-2-ad	1.01	0.943	0.8	0.767	0.931	0.991	0.911	0.856	0.819	0.414	0.457	0.387	0.287	0.235	0.81	0.827	0.81	0.857	–	–
SW 900	1.15	0.779	0.933	1.07	1	0.87	0.858	0.615	0.825	–	–	–	–	–	1.07	–	0.825	1.2	1.08	1.09
HCC-827	0.988	0.993	0.967	0.997	1.02	1.02	0.96	0.976	1.02	1.07	1.06	0.956	0.998	0.781	0.567	0.616	0.577	0.605	–	0.575
EMC-BAC-2	0.99	0.788	0.94	0.968	0.772	0.994	0.957	0.8	0.811	1.2	1.13	1.14	1.07	0.974	0.889	–	0.73	0.829	0.944	0.751
NCI-H322M	0.922	0.939	0.951	0.855	0.964	0.861	0.894	0.975	1.07	1.28	1.11	1.25	1.32	1.12	0.487	0.506	0.561	0.529	0.974	0.518
NCI-H650	1.1	0.816	0.953	1.07	0.979	0.927	1	0.745	0.763	–	–	–	–	–	1	1.06	0.817	0.94	1.02	1.09
NCI-H1563	1.11	1.16	1.07	1.14	0.961	1.08	0.98	0.931	0.867	–	–	–	–	–	–	–	–	–	0.954	–
NCI-H1703	1.42	0.998	1.06	1.19	0.784	0.769	0.355	0.199	0.19	0.996	0.731	0.357	0.188	0.205	–	–	–	–	1.3	–
LCLC-103H	1.01	1.07	1.01	1.02	0.998	0.956	0.956	0.912	0.942	–	–	–	–	–	0.672	0.745	0.696	0.684	0.848	0.72
NCI-H1299	1.04	1.07	1.01	1.03	1.04	1	1	0.931	0.917	1.06	1.05	1.03	1.05	0.937	–	–	–	–	1.07	–
ABC-1	1.2	0.965	0.948	0.448	–	1.06	0.86	0.911	0.703	–	–	–	–	–	–	–	–	–	0.847	–
NCI-H522	1.09	1.05	0.942	1.11	1	1.04	1.1	0.916	0.928	–	–	–	–	–	0.749	0.725	0.899	1.21	1.24	1.07
NCI-H1623	0.982	1.08	0.909	1.03	1	0.924	0.966	0.946	0.593	–	–	–	–	–	–	–	–	–	0.985	–
NCI-H661	0.964	0.911	0.875	0.893	0.973	0.908	0.973	0.929	0.948	–	–	–	–	–	0.643	0.575	0.527	0.586	0.801	0.54
NCI-H358	1.09	1.03	0.98	1.09	0.987	1.03	0.962	0.961	0.877	–	–	–	–	–	0.128	0.139	0.137	0.157	0.939	0.12
NCI-H2342	1.03	1.04	0.935	1.07	0.899	0.909	0.998	0.929	0.941	–	–	–	–	–	0.773	0.9	0.823	0.801	0.665	–
A549	0.976	0.923	0.849	0.996	1.02	1.04	1.02	0.903	0.909	1.18	1.34	1.22	1.19	1.02	–	–	–	–	0.896	–
EBC-1	1.19	1.07	0.918	1.04	1	1.06	0.914	0.858	0.738	0.5	0.55	0.46	0.27	0.237	–	–	–	–	1.18	–
